Measurements from patent US12691124B2, “Methods of controlling and improving brain health” (ICAHN SCHOOL OF MEDICINE AT MOUNT SINAI, priority 2019, dated 2026).

Columns and labels:
primary cortical neurons = test: Autophagy, protein content and cell size in neurons (LC3II/LC3I, BCA, Map2+ area); assay type: cell-based, mouse
Method: (§1) Immunoblotting. Mice were anesthetized with CO2 followed by decapitation, and the region of interest was rapidly dissected and frozen in liquid nitrogen and stored at −80° C. until further processing. Samples were sonicated at 4° C. in 1% SDS solution supplemented with protease, Trichostatin A (500 ng/ml) and PhosStop phosphatase inhibitor (Roche, Switzerland), and boiled for ten minutes. The protein concentration was determined using a BCA protein assay kit (ThermoFisherScientific, USA) according to the manufacturer's instructions. Protein samples were diluted in equal volume of 2×LDS sample buffer (Invitrogen) and supplemented with DTT to a final concentration of 200 mM (Sigma).
Because autophagy increases lipid species which are mostly non-polar, they are not detected in the polar metabolite data. However, if autophagy is, in fact, activated after BET inhibition, the neurons would be smaller and possibly contain less protein. Indeed, total protein content is decreased by 13% as measured by the BCA assay after one week of BET inhibition (FIG. 13C). […] Moreover, BET inhibition causes an almost three-fold increase in autophagy as measured by the ratio of LC3II to LC3I, a common autophagic marker (FIG. 13D).
Primary cortical neurons treated with IBET858 for 1 week have decreased glycolysis and amino acid metabolites (FIG. 21A). […] A summary of gene expression and metabolite data highlighting downregulation of solute carriers and metabolites that support anabolic and oxidative metabolic programs and an upregulation of neuroprotective metabolites and programs, such as autophagy (FIG. 21C). The glycolytic capacity of primary cortical neurons treated with acute (24 hour) or chronic (1 week) of IBET858 (FIGS. 21D-21H). IBET treated neurons was evaluated using the Seahorse assay. […] Further, the neurons display a decrease in glycolytic capacity as measured by the extracellular acidification rate (ECAR) (FIG. 21H). 1 week of IBET858 treatment increases autophagy as measured by an increase in the LC3 II/I ratio and a decrease in overall protein content by BCA assay (FIGS. 21I and 21J). CAG-RFP-EGFP-Map1lc3b mice expressing the LC3 protein together with RFP and a pH-dependent eGFP were used to evaluate the number of autophagic vesicles by immunofluorescence (FIGS. 21K and 21L). […] Frequency distribution of autophagic vesicles after 24 hours (left) or 1 week (right) treatment with IBET858 (FIG. 21L).

mTOR = mTOR signaling in neurons (p70-S6k Thr389 phosphorylation); assay type: cell-based, mouse
Method: as §1
Additionally, there is significant agreement between genes sensitive to BET inhibition and mTOR inhibition.

SMILES: CC(=O)N1c2ccc(-c3ccc(CN4CCCCC4)cc3)cc2[C@H](Nc2ccccc2)CC1C (stereo in doubt) [IBET858]
- decrease in somatic area (Map2+ area) (primary cortical neurons): 25%
- autophagic vesicles (CAG-RFP-EGFP-Map1lc3b neurons) (primary cortical neurons; 1 w): an increase in autophagic vesicles
- increase in autophagy, ratio of LC3II to LC3I (primary cortical neurons; 1 week): three
- decrease in total protein content, BCA assay (primary cortical neurons; one week of BET inhibition): 13%
- mTOR activity, phosphorylation of p70-S6k at Thr389 (mTOR): significant, time-dependent decrease
- mTOR protein levels (mTOR): does not affect
